We go through 1 compound from patent US8784910B2, “Antimicrobial compositions” (Lonza Inc., priority 2002, dated 2014).

The assay has as its system S. aureus (ATCC #6538), P. aeruginosa (ATCC #9027), and E. coli (ATCC #8739). Nature of the assay: Mixed bacterial challenge of preserved anionic protein shampoo (Examples 4 and 7). In kind it is cell-based. The note with it: for Qb: concentration alone required for 100% retardation of the bacteria. The protocol:
Each anionic shampoo sample in Table 3 below was tested as follows. A standardized mixed bacterial solution was prepared according to the following procedure. 3 agar stabs of S. aureus (ATCC #6538), P. aeruginosa (ATCC #9027), and E. coli (ATCC #8739) were separately incubated at about 35 EC for about 24 hours. Each stab was then washed with 3 mL of sterile 0.85% saline solution. The washes of the 3 stabs were pooled together to form an organism mixture. The absorbance of the organism mixture at 530 nm was adjusted to about 1.00 by adding saline. The spectrometer was calibrated with a saline blank. A 5 mL aliquot of the organism mixture was mixed together to produce the standardized mixed bacterial solution. Then, 40 g of each shampoo sample was inoculated with 0.2 mL of the standardized mixed bacterial solution and mixed. 1 g of the mixture was added to a sterile 20×150 mm screw cap test tube.
9 mL of sterile D/E neutralizer broth was added to the test tube and mixed to form a 10^−1 dilution. Serial dilutions were prepared through to a 10^−6 dilution with phosphate buffered water. The serial dilutions were plated onto Tryptic Soy Agar and incubated for 2 days at about 35 EC. Bacteria counts were performed after 0, 7, and 14 days.
The anionic protein shampoo composition was comprised of 35% by weight of sodium lauryl ether sulfate; 25% by weight of triethanolamine lauryl sulfate; 3% by weight coconut diethanolamide (cocamide DEA); 1% by weight of hydrolyzed collagen, available as Polypro 5000™ from Hormel Foods of Austin, Minn.; and 36% by weight of deionized water.
The cinnamaldehyde and other preservative containing samples were prepared by mixing the appropriate amounts of the preservatives and the aforementioned anionic protein shampoo composition and heating the mixture to about 50 EC for about 15 minutes.
Synergism for the cinnamaldehyde/Glydant 2000™ solutions in Table 8 against S. aureus, P. aeruginosa, and E. coli was calculated by the method described in C. E. Kull et al., A Mixtures of Quaternary Ammonium Compounds and Long-chain Fatty Acids as Antifungal Agents@, Applied Microbiology, 9:538-541 (1961). The synergism value (QA/Qa+QB/Qb) in Table 7 was determined. […] Qa is the concentration of cinnamaldehyde alone (in percent by weight) required to yield 100% retardation of the bacteria. QB is the concentration of Glydant 2000™ (in percent by weight) in the mixture, which yielded 100% retardation of the bacteria. Qb is the concentration of Glydant 2000™ alone (in percent by weight) required to yield 100% retardation of the bacteria.
When the value of (QA/Qa+QB/Qb) is less than one, the mixture is synergistic. Values for (QA/Qa+QB/Qb) of 1 and greater than 1, represent an additive effect and an antagonistic effect, respectively.

In the case of `O=CC=Cc1ccccc1` [Cinnamaldehyde, cinnamaldehyde], the “S. aureus, P. aeruginosa, and E. coli Day 0” value is listed as 3.0 × 10^6 cfu/g (0.05% in shampoo, Day 0, Example 7 Table 8); 3.0 × 10^7 cfu/g (0.10% by weight in shampoo, Day 0, Table 3); 3.0 × 10^6 cfu/g (0.10% in shampoo, Day 0, Example 7 Table 8); 3.0 × 10^7 cfu/g (0.20% by weight in shampoo, Day 0, Table 3); 3.0 × 10^7 cfu/g (0.25% by weight in shampoo, Day 0, Table 3). Besides, the “S. aureus, P. aeruginosa, and E. coli Day 7” value is 6.5 × 10^6 cfu/g (0.05% in shampoo, Day 7, Example 7 Table 8); 1.0 × 10^1 cfu/g (0.10% by weight in shampoo, Day 7, Table 3); 1.0 × 10^1 cfu/g (0.10% in shampoo, Day 7, Example 7 Table 8); below 10 cfu/g (0.20% by weight in shampoo, Day 7, Table 3); below 10 cfu/g (0.25% by weight in shampoo, Day 7, Table 3). Besides, the “S. aureus, P. aeruginosa, and E. coli Day 14” value is 1.0 × 10^7 cfu/g (0.05% in shampoo, Day 14, Example 7 Table 8); below 10 cfu/g (0.10% by weight in shampoo, Day 14, Table 3); below 10 cfu/g (0.10% in shampoo, Day 14, Example 7 Table 8); below 10 cfu/g (0.20% by weight in shampoo, Day 14, Table 3); below 10 cfu/g (0.25% by weight in shampoo, Day 14, Table 3). The Qb (For Day 7) was found to be 0.1% and the Qb (For Day 14) was determined as 0.05%.
